Laboratory results: ChEMBL document CHEMBL5380773, “Novel Feleucin-K3-Derived Peptides Modified with Sulfono-γ-AA Building Blocks Targeting Pseudomonas aeruginosa and Methicillin-Resistant Staphylococcus aureus Infections” (J Med Chem, 2023)
Numbered stars: 1 amine (or outer) side, 2 acyl side, 3 side chain; on linkers, the order of the positions; unused ones are H or OH. Square brackets hold non-standard residues; d marks the D form. Peptide text beside a SMILES is read from it. * marks the point of attachment. X21 = CC(C)c1cc(C(C)C)c(S(=O)(=O)N(CC(N)=O)C[C@H](Cc2ccccc2)N*)c(C(C)C)c1; X14 = CC(C)C[C@@H](CN(CC(N)=O)S(=O)(=O)c1c(C(C)C)cc(C(C)C)cc1C(C)C)N*; X12 = NC(=O)CN(C[C@H](Cc1ccccc1)N*)S(=O)(=O)c1ccc([N+](=O)[O-])cc1; X11 = CC(C)C[C@@H](CN(CC(N)=O)S(=O)(=O)c1ccc([N+](=O)[O-])cc1)N*; X9 = NC(=O)CN(C[C@H](Cc1ccccc1)N*)S(=O)(=O)c1ccccc1[N+](=O)[O-]; X17 = CC(C)C[C@@H](CN(CC(N)=O)S(=O)(=O)c1ccccc1[N+](=O)[O-])N*; X13 = NC(=O)CN(C[C@H](Cc1ccccc1)N*)S(=O)(=O)c1ccc(Br)cc1; X18 = NC(=O)CN(C[C@H](Cc1ccccc1)N*)S(=O)(=O)c1ccc(Cl)cc1; X19 = COc1ccc(S(=O)(=O)N(CC(N)=O)C[C@H](Cc2ccccc2)N*)cc1; X15 = NC(=O)CN(C[C@H](Cc1ccccc1)N*)S(=O)(=O)c1ccc(I)cc1; X7 = NC(=O)CN(C[C@H](Cc1ccccc1)N*)S(=O)(=O)c1cccc(Cl)c1; X16 = CC(C)C[C@@H](CN(CC(N)=O)S(=O)(=O)c1ccc(Cl)cc1)N*; X6 = COc1ccc(S(=O)(=O)N(CC(N)=O)C[C@H](CC(C)C)N*)cc1; X8 = CC(C)C[C@@H](CN(CC(N)=O)S(=O)(=O)c1ccc(I)cc1)N*; X3 = N[C@@H](Cc1ccccc1)CN(CC(=O)[*:2])[*:1]; Brosyl = O=S(=O)(c1ccc(Br)cc1)*

Test system: Erythrocyte
Assay: Hemolytic activity against mouse red blood cells incubated for 1 hr
Type: toxicity, cell-based

Row | Structure (SMILES) | MHC [µg/mL]
1 | CC(C)C[C@H](NC(=O)[C@H](CC(C)C)NC(=O)[C@H](CCCCN)NC(=O)[C@H](CCCCN)NC(=O)[C@H](CC(C)C)NC(=O)[C@H](CC(C)C)NC(=O)[C@H](CCCCN)NC(=O)CN(C[C@@H](N)Cc1ccccc1)S(=O)(=O)c1ccc(Br)cc1)C(N)=O (Brosyl-[X3]KLLKKLL-NH2) | 64
2 | COc1ccc(S(=O)(=O)N(CC(N)=O)C[C@H](CC(C)C)NC(=O)[C@H](CCCCN)NC(=O)[C@H](CCCCN)NC(=O)[C@H](CC(C)C)NC(=O)[C@H](CC(C)C)NC(=O)[C@H](CCCCN)NC(=O)[C@H](CC(C)C)NC(=O)[C@@H](N)Cc2ccccc2)cc1 (H-FLKLLKK-X6) | 256
3 | CC(C)C[C@H](NC(=O)[C@H](CC(C)C)NC(=O)[C@H](CCCCN)NC(=O)[C@H](CC(C)C)NC(=O)[C@@H](N)Cc1ccccc1)C(=O)N[C@@H](CCCCN)C(=O)N[C@@H](CCCCN)C(=O)N[C@@H](Cc1ccccc1)CN(CC(N)=O)S(=O)(=O)c1cccc(Cl)c1 (H-FLKLLKK-X7) | 256
4 | CC(C)C[C@@H](CN(CC(N)=O)S(=O)(=O)c1ccc(I)cc1)NC(=O)[C@H](CCCCN)NC(=O)[C@H](CCCCN)NC(=O)[C@H](CC(C)C)NC(=O)[C@H](CC(C)C)NC(=O)[C@H](CCCCN)NC(=O)[C@H](CC(C)C)NC(=O)[C@@H](N)Cc1ccccc1 (H-FLKLLKK-X8) | 256
5 | CC(C)C[C@H](NC(=O)[C@H](CC(C)C)NC(=O)[C@H](CCCCN)NC(=O)[C@H](CC(C)C)NC(=O)[C@@H](N)Cc1ccccc1)C(=O)N[C@@H](CCCCN)C(=O)N[C@@H](CCCCN)C(=O)N[C@@H](Cc1ccccc1)CN(CC(N)=O)S(=O)(=O)c1ccccc1[N+](=O)[O-] (H-FLKLLKK-X9) | 256
6 | CC(C)C[C@@H](CN(CC(N)=O)S(=O)(=O)c1ccc([N+](=O)[O-])cc1)NC(=O)[C@H](CCCCN)NC(=O)[C@H](CCCCN)NC(=O)[C@H](CC(C)C)NC(=O)[C@H](CC(C)C)NC(=O)[C@H](CCCCN)NC(=O)[C@H](CC(C)C)NC(=O)[C@@H](N)Cc1ccccc1 (H-FLKLLKK-X11) | 256
7 | CC(C)C[C@H](NC(=O)[C@H](CC(C)C)NC(=O)[C@H](CCCCN)NC(=O)[C@H](CC(C)C)NC(=O)[C@@H](N)Cc1ccccc1)C(=O)N[C@@H](CCCCN)C(=O)N[C@@H](CCCCN)C(=O)N[C@@H](Cc1ccccc1)CN(CC(N)=O)S(=O)(=O)c1ccc([N+](=O)[O-])cc1 (H-FLKLLKK-X12) | 256
8 | CC(C)C[C@H](NC(=O)[C@H](CC(C)C)NC(=O)[C@H](CCCCN)NC(=O)[C@H](CC(C)C)NC(=O)[C@@H](N)Cc1ccccc1)C(=O)N[C@@H](CCCCN)C(=O)N[C@@H](CCCCN)C(=O)N[C@@H](Cc1ccccc1)CN(CC(N)=O)S(=O)(=O)c1ccc(Br)cc1 (H-FLKLLKK-X13) | 256
9 | CC(C)C[C@@H](CN(CC(N)=O)S(=O)(=O)c1c(C(C)C)cc(C(C)C)cc1C(C)C)NC(=O)[C@H](CCCCN)NC(=O)[C@H](CCCCN)NC(=O)[C@H](CC(C)C)NC(=O)[C@H](CC(C)C)NC(=O)[C@H](CCCCN)NC(=O)[C@H](CC(C)C)NC(=O)[C@@H](N)Cc1ccccc1 (H-FLKLLKK-X14) | 32
10 | CC(C)C[C@H](NC(=O)[C@H](CC(C)C)NC(=O)[C@H](CCCCN)NC(=O)[C@H](CC(C)C)NC(=O)[C@@H](N)Cc1ccccc1)C(=O)N[C@@H](CCCCN)C(=O)N[C@@H](CCCCN)C(=O)N[C@@H](Cc1ccccc1)CN(CC(N)=O)S(=O)(=O)c1ccc(I)cc1 (H-FLKLLKK-X15) | 128
11 | CC(C)C[C@@H](CN(CC(N)=O)S(=O)(=O)c1ccc(Cl)cc1)NC(=O)[C@H](CCCCN)NC(=O)[C@H](CCCCN)NC(=O)[C@H](CC(C)C)NC(=O)[C@H](CC(C)C)NC(=O)[C@H](CCCCN)NC(=O)[C@H](CC(C)C)NC(=O)[C@@H](N)Cc1ccccc1 (H-FLKLLKK-X16) | 256
12 | CC(C)C[C@@H](CN(CC(N)=O)S(=O)(=O)c1ccccc1[N+](=O)[O-])NC(=O)[C@H](CCCCN)NC(=O)[C@H](CCCCN)NC(=O)[C@H](CC(C)C)NC(=O)[C@H](CC(C)C)NC(=O)[C@H](CCCCN)NC(=O)[C@H](CC(C)C)NC(=O)[C@@H](N)Cc1ccccc1 (H-FLKLLKK-X17) | 256
13 | CC(C)C[C@H](NC(=O)[C@H](CC(C)C)NC(=O)[C@H](CCCCN)NC(=O)[C@H](CC(C)C)NC(=O)[C@@H](N)Cc1ccccc1)C(=O)N[C@@H](CCCCN)C(=O)N[C@@H](CCCCN)C(=O)N[C@@H](Cc1ccccc1)CN(CC(N)=O)S(=O)(=O)c1ccc(Cl)cc1 (H-FLKLLKK-X18) | 128
14 | COc1ccc(S(=O)(=O)N(CC(N)=O)C[C@H](Cc2ccccc2)NC(=O)[C@H](CCCCN)NC(=O)[C@H](CCCCN)NC(=O)[C@H](CC(C)C)NC(=O)[C@H](CC(C)C)NC(=O)[C@H](CCCCN)NC(=O)[C@H](CC(C)C)NC(=O)[C@@H](N)Cc2ccccc2)cc1 (H-FLKLLKK-X19) | 256
15 | CC(C)C[C@H](NC(=O)[C@H](CC(C)C)NC(=O)[C@H](CCCCN)NC(=O)[C@H](CC(C)C)NC(=O)[C@@H](N)Cc1ccccc1)C(=O)N[C@@H](CCCCN)C(=O)N[C@@H](CCCCN)C(=O)N[C@@H](Cc1ccccc1)CN(CC(N)=O)S(=O)(=O)c1c(C(C)C)cc(C(C)C)cc1C(C)C (H-FLKLLKK-X21) | 32
